Laboratory results published in the NIST ThermoML archive (doi:10.1021/je3003578).

Assay: xn = mol fraction of the nth substance listed
Conditions: 101 kPa, Liquid

CCOCCCN [3-ethoxy-1-propanamine] + O
mass density [kg/m3]
Conditions	283.15 K	288.15 K	293.15 K	298.15 K	303.15 K
x1 = 0.000108	999.685	999.073	998.176	997.018	995.609
x1 = 0.000319	999.612	998.997	998.098	996.937	995.522
x1 = 0.000625	999.489	–	997.974	996.811	995.392
x1 = 0.000707	999.462	–	–	–	–
x1 = 0.000942	999.378	998.755	997.845	996.67	995.256
x1 = 0.001046	999.335	–	–	–	–
x1 = 0.001284	999.244	998.623	997.706	996.533	995.106
x1 = 0.001947	999.006	998.367	997.459	996.269	994.822
x1 = 0.002912	998.665	998.003	997.058	995.851	994.409
x1 = 0.00392	998.32	997.639	996.673	995.45	993.991
x1 = 0.005098	997.943	997.245	996.25	995.024	993.55
x1 = 0.007456	997.213	996.459	–	–	–
x1 = 0.00981	996.579	995.782	994.681	993.348	991.796
x1 = 0.0148	995.454	994.495	993.269	991.824	990.144
x1 = 0.01956	994.585	993.456	992.092	990.53	988.708
x1 = 0.02832	993.306	991.899	990.264	988.433	986.387
x1 = 0.03914	992.137	990.361	988.357	986.207	983.868
x1 = 0.05082	991.126	988.889	986.504	983.995	981.31
x1 = 0.06674	989.564	986.858	983.968	980.975	977.903
x1 = 0.09536	985.793	982.292	978.874	975.145	971.645
x1 = 0.1209	981.126	977.267	973.326	969.369	965.331
x1 = 0.1452	976.001	971.617	967.737	963.561	959.341
x1 = 0.1844	967.807	962.845	958.517	954.192	949.751
x1 = 0.2121	960.275	955.87	951.456	947.02	942.563
x1 = 0.2438	954.343	948.987	944.543	940.074	935.55
x1 = 0.2923	944.589	939.953	935.456	930.954	926.38
x1 = 0.361	932.627	926.801	922.252	917.676	913.059
x1 = 0.4369	921.019	916.153	911.545	906.929	902.254
x1 = 0.4937	911.932	907.295	902.62	897.985	893.262
x1 = 0.5513	904.655	900.039	895.311	890.64	885.906
x1 = 0.6214	896.914	892.186	887.472	882.775	877.992
x1 = 0.6775	891.266	886.402	881.634	876.891	872.12
x1 = 0.6943	889.59	884.998	880.062	875.446	870.586
x1 = 0.7458	884.839	880.089	875.436	870.539	865.744
x1 = 0.7733	882.976	–	873.142	868.397	863.589
x1 = 0.7947	880.664	875.868	871.067	866.312	861.557
x1 = 0.8276	878.228	873.43	868.648	863.952	859.105
x1 = 0.8488	876.201	871.511	–	862.009	–
x1 = 0.8744	874.608	–	864.922	860.155	855.327
x1 = 0.8993	872.317	867.858	862.73	858.054	853.46
x1 = 0.9189	871.084	866.306	861.498	856.71	851.896
x1 = 0.9349	–	864.955	–	–	–
x1 = 0.9411	869.403	–	859.742	855.013	850.2
x1 = 0.9436	–	864.338	–	–	–
x1 = 0.9486	868.869	–	859.29	854.542	849.691
x1 = 0.9601	868.041	863.267	–	–	–
x1 = 0.9613	–	–	858.247	853.53	848.739
x1 = 0.9746	–	–	857.315	852.649	847.719
x1 = 0.9755	–	862.192	–	–	–
x1 = 0.985	866.322	861.525	–	–	–
x1 = 0.9871	–	–	856.398	851.83	846.839
x1 = 1	865.36	860.63	855.715	851.018	846.075
